Holding throughout (assay): growth of human tumour cells (NCI), 48 h
Assay [1] has as its system A549 NSCLC.
Assay [2] has as its system COLO 205 colon.
Assay [3] deals with HCT-15 colon.
The test system of assay [4] is HOP-62 NSCLC.
The subject of assay [5] is HOP-92 NSCLC.
The test system of assay [6] is LOX IMVI melanoma.
In assay [7] the test system is MDA-MB-435.
Assay [8] concerns MDA-N.
Assay [9] deals with NCI-H226 lung.
Assay [10] concerns NCI/ADR-RES ovarian.
The test system of assay [11] is SF-268 CNS.
Assay [12] concerns SK-MEL-2 melanoma.
The subject of assay [13] is SK-MEL-5 melanoma.
In assay [14] the test system is SNB-19 CNS.
Assay [15] deals with SNB-75 CNS.
Assay [16] deals with SR leukemia.
Assay [17] concerns SW-620 colon.
Assay [18] concerns TK-10 renal.
In assay [19] the test system is U251 CNS.
In assay [20] the test system is EKVX NSCLC.

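Growth conditions: 96-well plates. Treatment: test compound, 48 hours, 5 concentrations. Analysis: linear interpolation between bracketing concentrations; unreached endpoints set to highest concentration. TGI marks complete inhibition of growth.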

The text below walks through data of PubChem BioAssay (NCI).

On to `C=CCn1c(-c2ccc(Cl)cc2)csc1=Nc1ccccc1OC`, for which the TGI in assay [1], in assay [2], in assay [3], in assay [4], in assay [5] and in assay [6] was more than 100 µM in each case. Further, the TGI was more than 100 µM in assay [7]; more than 59.6 µM in assay [8]; more than 100 µM in assay [9]; more than 91.6 µM in assay [10]; more than 100 µM in assay [11]; more than 100 µM in assay [12]. In addition, the TGI is 8.11 µM in assay [13]; more than 100 µM in [14]; more than 94.3 µM in assay [15]; more than 100 µM in assay [16]; more than 100 µM in [17]; more than 100 µM in assay [18]. Moreover, in assay [19], the TGI is more than 100 µM.
With `Cc1cc(N(CCC#N)CCC#N)ccc1/C(N=Nc1ccc([N+](=O)[O-])cc1)=N\NC(=O)c1ccccc1`, the TGI in assay [1], in assay [2], in assay [20], in [3], in assay [4] and in assay [7] was more than 100 µM in each case. In addition, the TGI in assay [8], in assay [9], in assay [10], in assay [11], in assay [12] and in assay [13] was more than 100 µM each time. The TGI in [14], in [15], in [16], in assay [18] and in assay [19] was more than 100 µM throughout.
In the case of `C=CCN(CCN(CC=C)S(=O)(=O)c1ccc(C)cc1)S(=O)(=O)c1ccc(C)cc1`, the TGI in [1], in assay [2], in [3], in [5], in assay [6] and in [7] was more than 100 µM each time. In addition, the TGI in assay [8], in assay [9], in assay [10], in [11], in assay [13] and in assay [14] was more than 100 µM throughout. Besides, the TGI in assay [15], in [16], in assay [17], in assay [18] and in assay [19] was more than 100 µM in each case.
`COc1ccc2c(c1OC)C(=O)O[C@@H]2[C@H]1c2c(cc3c(c2OC)OCO3)CCN1C`: the TGI in assay [1], in [2], in assay [3], in assay [4], in assay [5] and in assay [6] was more than 100 µM throughout. For the same compound, the TGI in assay [7] was 32.2 µM; in assay [8] it was more than 100 µM; in assay [9], more than 100 µM; in assay [10], more than 100 µM; in [11], more than 100 µM; in [12], more than 100 µM. The TGI in assay [13] was more than 100 µM; in assay [14], more than 100 µM; in assay [15], 34 µM; in assay [16], more than 100 µM; in assay [17], more than 100 µM; in [19], more than 100 µM.
For the compound `CNC(=S)/C(C#N)=C(\N)N1CCCC1`, the TGI in [1], in assay [2], in assay [20], in [3], in [4] and in assay [7] was more than 100 µM in each case. Moreover, the TGI in assay [8], in assay [9], in assay [10], in assay [11], in [12] and in assay [13] was more than 100 µM each time. For the same compound, the TGI in assay [14], in assay [16], in assay [17], in assay [18] and in assay [19] was more than 100 µM in each case.
`C/C(O)=C(\C=NC(=S)c1ccncc1)C(=O)Nc1ccccc1C`: the TGI in assay [1], in assay [2], in assay [20], in [3], in assay [4] and in assay [5] was more than 100 µM each time. The TGI in assay [6], in assay [7], in assay [8], in assay [9], in assay [10] and in assay [11] was more than 100 µM in each case. Moreover, the TGI in [12], in assay [13], in assay [14], in assay [15], in assay [17] and in assay [18] was more than 100 µM in each case. In [19], this compound yielded a TGI of more than 100 µM.
Consider `O=C(C1OC1c1cccc([N+](=O)[O-])c1)C12CC3CC(CC(C3)C1)C2` (stereo not drawn), for which the TGI in [1] worked out at 26.6 µM; in assay [2], 23.4 µM; in [20], 27 µM; in assay [3], 14.7 µM; in assay [4] it was 24.3 µM; in assay [5], 25.3 µM. The TGI in assay [6] came to 3.84 µM; in assay [7] it was 12.2 µM; in [8], 11.9 µM; in assay [9], 25.9 µM; in [10], 9.74 µM; in assay [11], 9.18 µM. Moreover, the TGI in [12] was found to be 28.6 µM; in assay [13] it was 22.9 µM; in assay [14] it was 20.5 µM; in assay [15], 20 µM; in assay [17], 8.44 µM; in assay [18] it was 32.7 µM. This compound also showed a TGI in [19] of 9.64 µM.
On to `[N-]=[N+]=Nc1ccc2c(c1)Sc1ccccc1N2CCCCN1CCN(C(=O)CCNC(=O)Cc2ccc(C(=O)c3ccccc3)cc2)CC1`, for which the TGI was more than 100 µM in assay [1]; 8.92 µM in [2]; more than 100 µM in [20]; 8.52 µM in assay [3]; more than 100 µM in assay [4]; more than 29.2 µM in assay [5]. The TGI in [6] is 5.17 µM; in [7], 6.44 µM; in [8], 14.1 µM; in assay [9] it was more than 100 µM; in assay [10], more than 39.1 µM; in assay [11] it was 16 µM. The TGI in assay [12] was 8.97 µM; in assay [13], 4.39 µM; in assay [14] it was more than 56.4 µM; in assay [15], more than 24.4 µM; in assay [17], more than 39.3 µM; in assay [18], more than 75.6 µM. Besides, the TGI in assay [19] was more than 24.6 µM.
`CCOC1CCN(C(=O)c2ccccc2)O1` (stereo not drawn): the TGI in [1], in [2], in [20], in assay [3], in assay [4] and in assay [6] was more than 10 µM throughout. Also, the TGI in assay [7], in [8], in [9], in assay [10], in assay [11] and in [12] was more than 10 µM each time. The TGI in [13], in [14], in assay [15], in assay [16], in assay [17] and in assay [18] was more than 10 µM in each case.
On to `C[C@H]1O[C@@H](C(C)(C)C)OC(=O)[C@@H]1C(OC(=O)c1ccccc1)c1cccc2ccccc12` (stereo partly drawn), for which the TGI in assay [1], in assay [2], in assay [20], in [3], in assay [4] and in assay [6] was more than 100 µM in each case. Further, the TGI in assay [7], in assay [8], in assay [9], in assay [10], in assay [11] and in assay [12] was more than 100 µM in each case. Besides, the TGI in assay [13], in assay [14], in [15], in [16], in assay [17] and in [18] was more than 100 µM in each case. In assay [19], this compound yielded a TGI of more than 100 µM.
In the case of `CCN(CC)CCN1C(=O)C(=O)N(c2cccc3ccccc23)C1=O`, the TGI in assay [1], in [2], in [20], in assay [3], in assay [4] and in assay [6] was more than 10 µM each time. Moreover, the TGI in [7], in assay [8], in [9], in assay [10], in assay [11] and in assay [12] was more than 10 µM throughout. For the same compound, the TGI in assay [13], in [14], in [15], in assay [16], in [17] and in assay [18] was more than 10 µM each time. Besides, the TGI in [19] was more than 10 µM.
For the compound `Cc1cn(C2OC(CO)C(O)C2F)c(=O)[nH]c1=O` (stereo not drawn), the TGI in assay [1], in [2], in [20], in [3], in assay [4] and in assay [5] was more than 100 µM each time. The TGI in assay [6], in assay [7], in assay [8], in assay [9], in assay [10] and in assay [11] was more than 100 µM in each case. Also, the TGI in assay [12], in assay [13], in assay [14], in [15], in assay [17] and in [18] was more than 100 µM throughout. Also, the TGI in assay [19] is more than 100 µM.
As for `CC(=O)c1c(O)n(-c2ccc(C)cc2)c(=O)c2c(N)n[nH]c12`, the TGI in assay [1], in assay [2], in assay [20], in assay [3], in [6] and in assay [7] was more than 100 µM throughout. Further, the TGI in assay [8], in assay [9], in [10], in assay [11], in assay [12] and in assay [13] was more than 100 µM throughout. Moreover, the TGI in assay [14], in assay [15], in assay [16], in [17], in assay [18] and in assay [19] was more than 100 µM in each case.
On to `CC(=O)n1nc(-c2ccc3ccccc3c2)nc1C`, for which the TGI in assay [1], in assay [2], in [20], in [3], in assay [4] and in [6] was more than 100 µM throughout. Besides, the TGI in assay [7], in assay [8], in [10], in assay [11], in [12] and in assay [13] was more than 100 µM throughout. For the same compound, the TGI in [15], in assay [16], in assay [17] and in [18] was more than 100 µM throughout.
For `C=C(C)C(=O)OC1C[C@H](COC(C)=O)C2CC=C(CO)C2C2OC(=O)C(=C)[C@H]12` (stereo partly drawn), the TGI is more than 100 µM in [1]; 30 µM in assay [2]; more than 100 µM in assay [20]; more than 100 µM in assay [3]; more than 100 µM in assay [4]; more than 100 µM in [6]. Moreover, the TGI is more than 100 µM in [7]; more than 100 µM in assay [8]; more than 100 µM in [9]; more than 100 µM in [10]; 60.2 µM in assay [11]; more than 100 µM in [12]. The TGI in assay [13] was more than 100 µM; in assay [14], more than 100 µM; in assay [15], more than 100 µM; in assay [16], 65.2 µM; in [17] it was 40 µM; in assay [18] it was more than 100 µM. This compound returned a TGI in [19] of more than 100 µM.
